Measurements reported in patent publication US11858935B1, “Pyrrolo[2,3-c][1,7]naphthyridine-2-carboxylic acid compounds as CK2 inhibitors” (KING FAISAL UNIVERSITY, priority 2023, dated 2024).

Columns and labels:
[1] = test system: PC3 (prostate); test: In vitro cytotoxic activity (MTT) assay, PC3; format: cell-based; conditions: Homo sapiens, Prostate cell; PC3 (prostate) cells, exposed 96 hours; read-out: IC50, concentration eliciting 50% inhibition of cell proliferation
Experimental: (§1) Compounds 1-16 were screened for their in vitro cytotoxic activity utilizing a 3-(4,5-dimethyl-thiazol-2-yl)-2,5-diphenyltetrazolium bromide (MTT) assay against selected cancer human cell lines consisting of PC3 (prostate), HCT116 (colon), A375 (melanoma), H1299 (lung), MIAPaCa-2 (pancreas), HL60 (leukemia), MCF7 (breast), MDA-MB-231 (breast) (T. Mosmann, J. Immunol. Meth., 1983, 65, 55-63). The cells were cultured at 37° C. in RMPI1640 medium supplemented with 10% fetal bovine serum, 50 IU/mL penicillin, and 50 μg/mL streptomycin in a 5% CO2 incubator. All cells were sub-cultured 3 times/week by trypsinisation. Viable cells were seeded and allowed to adhere for 12 h before a test drug was added in 96-well plates at an initial density of 1.0×10^5 cells/mL. Tumor cell lines were separately exposed to various concentrations of the tested compounds followed by incubation at a temperature of 37° C. during 96 h inside a medium of fresh RMPI 1640. Cells were subsequently incubated at 37° C. using MTT at 0.5 mg/mL during 4 h. After removal of supernatant, formazan crystals were dissolved in isopropanol and the optical density was measured at 570 nm. CX-4945 was used as a positive control.

[2] = test system: A375 (melanoma); test: In vitro cytotoxic activity (MTT) assay, A375; format: cell-based; conditions: Homo sapiens, A-375; A375 (melanoma) cells, exposed 96 hours; read-out: IC50, concentration eliciting 50% inhibition of cell proliferation
Experimental: as §1

[3] = test system: H1299 (lung); test: In vitro cytotoxic activity (MTT) assay, H1299; format: cell-based; conditions: Homo sapiens, NCI-H1299; H1299 (lung) cells, exposed 96 hours; read-out: IC50, concentration eliciting 50% inhibition of cell proliferation
Experimental: as §1

[4] = target: T1, recombinant human CK2 (RRββ-holoenzyme) (Homo sapiens, UniProt P68400); test: CK2 Kinase Assay (33P-ATP, substrate peptide RRRDDDSDDD); format: biochemical; conditions: final ATP concentration 15 μM, 10 min at 30° C.; read-out: protein kinase CK2 IC50
T1 construct: purchased Millipore
Experimental: CK2 Kinase Assay was conducted using the protocol as described in Pierre F. et al; J. Med. Chem. 2011, 54, 635-654. The tested compounds in aqueous solution were added at a volume of 10 μL to a reaction mixture comprising 10 μL of assay dilution buffer (ADB; 20 mM MOPS, pH 7.2, 25 mM β-glycerol phosphate, 5 mM EGTA, 1 mM sodium orthovanadate, and 1 mM dithiothreitol), 10 μL of substrate peptide (RRRDDDSDDD, dissolved in ADB at a concentration of 1 mM), 10 μL of recombinant human CK2 (RRββ-holoenzyme, 25 ng dissolved in ADB; Millipore). Reactions were initiated by the addition of 10 μL of ATP solution (90% 75 mM MgCl2, 75 μM ATP (final ATP concentration:15 μM) dissolved in ADB; 10% [γ-33P] ATP (stock 1 mCi/100 μL; 3000 Ci/mmol (Perkin-Elmer) and maintained for 10 min at 30° C. The reactions were quenched with 100 μL of 0.75% phosphoric acid and then transferred to and filtered through a phosphor cellulose filter plate (Millipore). After washing each well five times with 0.75% phosphoric acid, the plate was dried under vacuum for 5 min and, following the addition of 15 μL of scintillation fluid to each well, the residual radioactivity was measured using a Wallac […]. The IC50 values were derived from eight concentrations of test inhibitors.

[5] = test system: MCF7 (breast); test: In vitro cytotoxic activity (MTT) assay, MCF7; format: cell-based; conditions: Homo sapiens; MCF7 (breast) cells, exposed 96 hours; read-out: IC50, concentration eliciting 50% inhibition of cell proliferation
Experimental: as §1

[6] = test system: MDA-MB-231 (breast); test: In vitro cytotoxic activity (MTT) assay, MDA-MB-231; format: cell-based; conditions: Homo sapiens; MDA-MB-231 (breast) cells, exposed 96 hours; read-out: IC50, concentration eliciting 50% inhibition of cell proliferation
Experimental: as §1

[7] = test system: MIAPaCa-2 (pancreas); test: In vitro cytotoxic activity (MTT) assay, MIAPaCa-2; format: cell-based; conditions: Homo sapiens, MIA PaCa-2; MIAPaCa-2 (pancreas) cells, exposed 96 hours; read-out: IC50, concentration eliciting 50% inhibition of cell proliferation
Experimental: as §1

[8] = test system: HL60 (leukemia); test: In vitro cytotoxic activity (MTT) assay, HL60; format: cell-based; conditions: Homo sapiens, HL-60; HL60 (leukemia) cells, exposed 96 hours; read-out: IC50, concentration eliciting 50% inhibition of cell proliferation
Experimental: as §1

[9] = test system: HCT116 (colon); test: In vitro cytotoxic activity (MTT) assay, HCT116; format: cell-based; conditions: Homo sapiens, HCT-116; HCT116 (colon) cells, exposed 96 hours; read-out: IC50, concentration eliciting 50% inhibition of cell proliferation
Experimental: as §1

T1 sequence (P68400 whole entry): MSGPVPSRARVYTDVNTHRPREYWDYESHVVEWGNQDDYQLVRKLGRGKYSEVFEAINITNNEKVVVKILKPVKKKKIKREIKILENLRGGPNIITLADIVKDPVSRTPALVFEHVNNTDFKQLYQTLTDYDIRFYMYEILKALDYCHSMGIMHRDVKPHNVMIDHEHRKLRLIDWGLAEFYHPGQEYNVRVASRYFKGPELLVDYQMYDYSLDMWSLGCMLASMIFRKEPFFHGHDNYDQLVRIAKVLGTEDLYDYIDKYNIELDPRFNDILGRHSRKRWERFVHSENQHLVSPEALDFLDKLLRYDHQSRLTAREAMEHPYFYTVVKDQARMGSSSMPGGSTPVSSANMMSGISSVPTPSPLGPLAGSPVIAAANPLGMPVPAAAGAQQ
T1 sequence (P67870 whole entry partner): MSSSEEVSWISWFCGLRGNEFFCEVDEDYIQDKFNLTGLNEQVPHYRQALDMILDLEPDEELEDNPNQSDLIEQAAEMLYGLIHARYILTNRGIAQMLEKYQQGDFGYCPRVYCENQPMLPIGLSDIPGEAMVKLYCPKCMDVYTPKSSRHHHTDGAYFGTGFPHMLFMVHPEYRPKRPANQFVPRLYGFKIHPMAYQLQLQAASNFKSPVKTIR

O=C(O)c1cc2c([nH]1)c(Nc1cccc(Cl)c1)nc1cnccc12 [Compound 1, 4-((3-chlorophenyl)amino)-3H-pyrrolo[2,3-c][1,7]naphthyridine-2-carboxylic acid]
IC50 [1]: 1500 nM | IC50 [2]: 2300 nM | IC50 [3]: 1400 nM | IC50 [4]: 26 nM | IC50 [5]: 4200 nM | IC50 [6]: 3600 nM | IC50 [7]: 1700 nM | IC50 [8]: 3100 nM | IC50 [9]: 1800 nM
